# Measurements reported in patent publication US20050214738A1, “Conditional allele system” (priority 2003, published 2005).
# Experiments:
# KLF = target: T1, KLF (Homo sapiens, UniProt P42345+P62942, T2098L/W2101F); test: SeAP transcriptional switch assay, FRB mutant KLF; type: cell-based; conditions: double mutant
# T1 construct: The minimal FRB domain comprises amino acids 2025-2114 of human mTor; expressed in transfected cells; host or cells: COS1 cells
# Experimental: (§1) Drug efficacy was determined in a three-plasmid transcriptional switch reporter assay. ˜106 COS1 cells were coelectroporated with 2 μg of the DNA binding construct pBJ5-Gal4-FKBP(3), 2 μg pBJ5-VP16 (or the relevant mutant FRB) and 2 μg of the Gal4-SeAP reporter. Electroporation details are available upon request. Cells were immediately aliquoted to 2 or 3×96 well plates with flat bottoms. After 24 hours incubation media was supplemented with a rapalog in triplicate and in serial two fold dilutions. Following 24 hours further incubation, cells with media were wrapped carefully in plastic wrap and heated to 65° C. for two hours to inactivate endogenous phosphatases. 50 μL of media was transferred to a black 96 well plate (Costar 3915) and supplemented with 1 mM methylumbelliferrylphosphate (Sigma, St. Louis, Mo.) in 1M diethanolamine (pH 10.0 with carbonate). After 16 hours incubation at 37° C. SeAP activity was measured by fluorescence with a Spectamax M2 fluorometer (Molecular Devices, Sunnyvale, Calif.) with transmission set at 355 nm and emmission set at 460 nm. Data was analysed with Softmax Pro (Molecular Devices), Microsoft Excel and Prism 3 (GraphPad Software).
# embryos = test: Overt effects on mother and embryos after IP injection of pregnant mice; type: in vivo, mouse; conditions: 200 mg/kg/day, 3 IP injections every 12 hours, E10.0 to E11.5
# Experimental: GSK-3β^+/FRB* mice were intercrossed and the date of vaginal plug observation was set as E0.5. At E9.5, the stage of embryonic development was confirmed by ultrasonography (Chang, C. P. et al. “Sonographic Staging of the Developmental Status of Mouse Embryos in Utero.” (2003) Published in Genesis 36, 7-11) and mice were weighed. Drug administration commenced at E10.0. […] 100 μL was immediately injected intraperitoneally (IP) to pregnant females with injections repeated twice more at 12 hour intervals to E11.5 when mice were sacrificed, and embryos and organs were dissected and frozen in […]. Tissues anterior to the embryonic forelimbs of individual embryos were used for preparation of protein extracts with the remainder used to determine the concentration of drug and for genotyping.
# FKBP-GSK3β-GFP = target: T2, FKBP-GSK3β-GFP (Homo sapiens, UniProt P62942); test: Sub-cellular localization of FKBP-GSK3β-GFP with FRB(TLW)-NES and FRB(KTF)-NLS in COS1 cells; type: cell-based; conditions: 10 nM, 1 hour
# T2 construct: expressed in transfected cells; host or cells: COS1 cells
# T2 sequence (P62942 whole entry): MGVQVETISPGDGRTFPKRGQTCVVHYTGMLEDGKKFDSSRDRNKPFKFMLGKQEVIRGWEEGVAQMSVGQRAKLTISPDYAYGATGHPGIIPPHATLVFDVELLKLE
# Experimental: COS1 cells were electroporated with 1 μg pS-FKBP-GSK3β-GFP, 1 μg of the ‘exporter’ pBJ5-FRB(TLW)-Exp-HA containing a nuclear export sequence derived from the rev protein of Human Immunodeficiency Virus and 3 μg of the ‘importer’ pBJ5-FRB(KTF)-Imp with a nuclear localization sequence from SV40 Large T antigen. Cells were plated on autoclaved coverslips and incubated 36 hours followed by 1 hour of rapalog treatment (10 nM). Cells were fixed 10 minutes in 4% paraformaldeyde/PBS at 4° C. and mounted for microscopy with DAPI to visualize the nucleus. Microscopy was perfomed with a Leica confocal microscope and Leica software.
# GSK-3βFRB* = target: T3, GSK-3βFRB* (Homo sapiens, UniProt P42345+P62942, K2095P/T2098L/W2101F); test: GSK-3β immunoprecipitation-kinase assay on MEF lysates; type: biochemical, mouse; conditions: treated GSK-3βFRB*/FRB* cells
# T3 construct: The minimal FRB domain comprises amino acids 2025-2114 of human mTor; endogenous in cells; host or cells: lysates of MEFs from GSK-3β^FRB* knock-in mice; immunoprecipitated with anti-GSK-3β
# T3 sequence (P42345 2025-2114 K2095P/T2098L/W2101F): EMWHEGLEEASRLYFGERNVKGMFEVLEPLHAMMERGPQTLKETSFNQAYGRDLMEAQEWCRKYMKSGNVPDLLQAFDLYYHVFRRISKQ
# T3 sequence (P62942 whole entry, the tested form may be a part): as the sequence (P62942 whole entry) above
# [1] = system: T4, GSK-3βFRB* (K2095P/T2098L/W2101F); test: as above; type: biochemical, mouse; conditions: treated versus untreated GSK-3βFRB*/FRB* MEFs
# T4 construct: The minimal FRB domain comprises amino acids 2025-2114 of human mTor; endogenous in cells; host or cells: lysates of MEFs from GSK-3β^FRB* knock-in mice; immunoprecipitated with anti-GSK-3β
# T4 sequence (P42345 2025-2114 K2095P/T2098L/W2101F): as the sequence (P42345 2025-2114 K2095P/T2098L/W2101F) above
# T4 sequence (P62942 whole entry, further chain, the tested form may be a part): as the sequence (P62942 whole entry) above
# KTF = target: T5, KTF (Homo sapiens, UniProt P42345+P62942, W2101F); test: SeAP transcriptional switch assay, FRB mutant KTF; type: cell-based
# T5 construct: The minimal FRB domain comprises amino acids 2025-2114 of human mTor; expressed in transfected cells; host or cells: COS1 cells
# T5 sequence (P42345 2025-2114 W2101F): as the sequence (P42345 2025-2114 K2095P/T2098L/W2101F) above, with P71K, L74T counted along it
# T5 sequence (P62942 whole entry, the tested form may be a part): as the sequence (P62942 whole entry) above
# Experimental: as §1
# mutant FRBs = target: T6, mutant FRBs (Homo sapiens, UniProt P42345, K2095T/T2098L); test: SeAP transcriptional switch assay, panel of FRB mutants at 2095, 2098, 2101; type: cell-based; conditions: TLW
# T6 construct: The minimal FRB domain comprises amino acids 2025-2114 of human mTor; expressed in transfected cells; host or cells: COS1 cells
# T6 sequence (P42345 2025-2114 K2095T/T2098L): as the sequence (P42345 2025-2114 K2095P/T2098L/W2101F) above, with P71T, F77W counted along it
# T6 sequence (P62942 2-108 partner): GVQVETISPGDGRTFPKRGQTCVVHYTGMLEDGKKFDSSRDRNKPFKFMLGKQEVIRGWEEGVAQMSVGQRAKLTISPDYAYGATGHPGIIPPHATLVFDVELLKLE
# Experimental: All FRB mutants were prepared by the Quikchange mutagenesis method (Stratagene) using protocols provided by the manufacturer. Briefly, PCR reactions containing the parent plasmid pBJ5-FRB-VP16-HA or pBJ5-FRB*-VP16-HA and overlapping oligonucleotides containing the relevant base changes were performed with Pfu polymerase (Stratagene, San Diego, Calif.). PCR reactions were digested with the methylation sensitive restriction endonuclease Dpn1 to eliminate the parent plasmid and the reaction was transformed in XL10-Gold Ultracompetent E. coli (Stratagene).
# Electroporation details are available upon request. Cells were immediately aliquoted to 2 or 3×96 well plates with flat bottoms. […] Data was analysed with Softmax Pro (Molecular Devices), Microsoft Excel and Prism 3 (GraphPad Software).
# KLW = target: T7, KLW (Homo sapiens, UniProt P42345+P62942, T2098L); test: SeAP transcriptional switch assay, FRB mutant KLW; type: cell-based
# T7 construct: The minimal FRB domain comprises amino acids 2025-2114 of human mTor; expressed in transfected cells; host or cells: COS1 cells
# T7 sequence (P42345 2025-2114 T2098L): as the sequence (P42345 2025-2114 K2095P/T2098L/W2101F) above, with P71K, F77W counted along it
# T7 sequence (P62942 whole entry, the tested form may be a part): as the sequence (P62942 whole entry) above
# Experimental: as §1
# T1 sequence (P42345 2025-2114 T2098L/W2101F): as the sequence (P42345 2025-2114 K2095P/T2098L/W2101F) above, with P71K counted along it
# T1 sequence (P62942 whole entry, the tested form may be a part): as the sequence (P62942 whole entry) above
substance,measurement,setting,value
C20-(R or S)-methallylrapamycin [C20-MaRap],EC50,KLF,7.8 nM
same,overt effect on mother and embryos,embryos,Neither the mother nor the embryos were overtly affected
same,sub-cellular localization of GSK3β,FKBP-GSK3β-GFP,localization of GSK3β to the nucleus
same,kinase activity relative to wild-type cells,GSK-3βFRB*,approximately 60%
same,increase in GSK-3β kinase activity,[1],over 7 fold
same,binding to KTF,KTF,binds efficiently
same,EC50,KTF; single mutation Trp2101 to Phe,9 nM
same,binding to the TLW mutant,mutant FRBs,inefficiently
same,improvement of affinity of KLW over wild-type,KLW; KLW versus wild-type FRB,about 5 fold
same,EC50,"KLW; single mutation Thr2098 to Leu, read-out: affinity, KLW",22 nM
